Assays:
Lxrα = target: T1, Lxrα (Homo sapiens, UniProt Q13133); assay: Lxr-responsive luciferase reporter assay (Lxre + Lxrα) in SN4741 neural cells; assay type: cell-based, mouse; settings: for Lxrα activation, luciferase activity: 10 μM, 24 h
T1 construct: expressed in transfected cells; host or cells: SN4741 mouse neuronal cell line
T1 sequence (Q13133 1-447): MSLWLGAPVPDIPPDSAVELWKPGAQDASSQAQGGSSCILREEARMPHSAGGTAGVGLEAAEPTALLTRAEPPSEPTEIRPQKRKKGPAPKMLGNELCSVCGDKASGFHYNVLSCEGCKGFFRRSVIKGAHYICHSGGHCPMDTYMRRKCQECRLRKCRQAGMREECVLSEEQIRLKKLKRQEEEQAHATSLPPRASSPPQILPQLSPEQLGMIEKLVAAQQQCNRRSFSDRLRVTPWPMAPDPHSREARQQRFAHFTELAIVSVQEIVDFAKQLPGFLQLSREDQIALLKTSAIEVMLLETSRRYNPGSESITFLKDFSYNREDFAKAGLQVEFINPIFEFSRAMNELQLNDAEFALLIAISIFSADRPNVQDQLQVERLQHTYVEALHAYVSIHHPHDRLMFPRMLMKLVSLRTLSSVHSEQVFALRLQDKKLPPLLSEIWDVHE
Excerpt: (§1) Luciferase Reporter Assay.

Lxrβ = target: T2, Lxrβ (Homo sapiens, UniProt P55055); assay: Lxr-responsive luciferase reporter assay (Lxre + Lxrβ) in SN4741 neural cells; assay type: cell-based, mouse; settings: SN4741 cells, 10 μM, 24 h
T2 construct: expressed in transfected cells; host or cells: SN4741 mouse neuronal cell line
T2 sequence (P55055 1-460): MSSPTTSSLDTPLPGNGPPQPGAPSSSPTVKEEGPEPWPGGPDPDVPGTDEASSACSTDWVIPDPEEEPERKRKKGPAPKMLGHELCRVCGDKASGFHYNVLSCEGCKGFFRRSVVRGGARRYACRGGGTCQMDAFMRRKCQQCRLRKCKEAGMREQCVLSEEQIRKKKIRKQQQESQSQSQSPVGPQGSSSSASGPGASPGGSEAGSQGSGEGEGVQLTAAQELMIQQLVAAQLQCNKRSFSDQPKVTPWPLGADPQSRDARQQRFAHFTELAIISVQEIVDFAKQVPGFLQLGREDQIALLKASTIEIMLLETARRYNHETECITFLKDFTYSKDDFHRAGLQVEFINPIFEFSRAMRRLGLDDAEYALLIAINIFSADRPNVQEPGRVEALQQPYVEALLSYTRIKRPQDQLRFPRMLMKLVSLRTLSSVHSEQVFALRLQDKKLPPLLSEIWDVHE
Excerpt: as §1

[1] = system: mouse E11.5 brain primary cultures; assay: Mouse E11.5 brain primary cultures (Islet1+, active caspase 3+, BrdU, Nkx6.1 counts); assay type: cell-based; settings: for Number of Islet1+ cells: wild type cultures, 3 DIV
Description: Primary Brain Cultures. Brains from E11.5 mice were manually dissected, plated on poly-D-lysine (150,000 cells/cm2) and grown in serum-free N2 media consisting of 1:1 mixture of F12 and DMEM with 10 ng/mL insulin, 100 μg/mL apo-transferrin, 100 μM putrescine, 20 nM progesterone, 30 nM selenium, 6 mg/mL glucose, and 1 mg/mL BSA. Cells were treated for 3 days in vitro (DIV) with the compounds of interest, fixed with 4% PFA and processed for staining using appropriate antibodies.
For BrdU analysis, cells were treated with BrdU one hour after plating and media was replaced with fresh medium after 16 h. After a further 2 days in culture, cells were treated for 30 min with 2N HCl and then immunocytochemistry was performed to evaluate the number of double BrdU+;Islet1+ cells (a measure of motor neuron neurogenesis). Hoechst staining was performed by permeabilizing cells with a 0.3% Triton-X 100/PBS solution for 5 min followed by incubation with Hoechst 33258 (Sigma) for 10 min.
Antibodies and Detection Procedures. Cells were fixed in 4% PFA, washed in PBS and blocked in 5% normal goat serum/PBS for 1 h at room temperature. Primary antibodies were diluted in PBS (pH 7.4), 0.3% Triton X-100, 1% BSA and incubations were carried out overnight at +4° C. or at room temperature for 2 h. The antibodies used were anti-: BrdU (1:400; Abeam), Islet-1 (1:100; Developmental Studies Hybridoma Bank), cleaved caspase-3 (Asp175) (1:100; Cell Signaling Technology), tyrosine hydroxylase (TH;1:1000; Pel-Freeze) GABA (1:1,000; Sigma), Brn3a (1:250; Millipore), Nkx6.1 (1:200; Novus Biologicals), choline acetyltransferase (ChAT; 1:500; Millipore) and appropriate secondary antibodies (Jackson ImmunoResearch or Alexa). Cells positive for the corresponding marker were counted directly at the microscope at a magnification of 20 x. Cells were counted in every well, in eight consecutive fields (going from one side of the well to the other, passing through the center), in three different wells per experiment and in three different experiments per condition. Random pictures of the wells were taken for every condition to document the result, and representative pictures were subsequently selected to represent the quantitative data. Photos were acquired with a Zeiss Axioplan microscope and a Hamamatsu camera C4742-95 using the Openlab software.

[2] = system: Islet-1:GFP transgenic zebrafish embryos; assay type: in vivo; settings: 10 μM
Description: Quantitative PCR. Total RNA was extracted from SN4741 cells and zebrafish treated with the compounds of interest using the RNeasy Mini Kit (Qiagen), 1 μg was treated with RQ1 RNase-free DNase (Promega) and reverse transcribed using Superscript II Reverse Transcriptase (Invitrogen) and random primers (Invitrogen) (RT+ reaction). Parallel reactions without reverse transcriptase enzyme were done as a control (RT− reaction), and Sybergreen real-time quantitative PCR assays were performed. Expression levels were obtained by normalization with the value of the housekeeping gene encoding actin obtained for every sample in parallel assays.
Zebrafish Strain and Mainrenance Zebrafish were raised on a 14/10 h day/night cycle and were kept at 28.5° C. Islet-1:GFP transgenic embryos were obtained via natural spawning and staged in hours or days post fertilization (hpf and dpf) according to Kimmel et al). Embryos older than 24 hpf were treated with 0.03% phenylthiourea (PTU) to inhibit pigmentation. MO injections were performed using splice site specific zebrafish 1xr MO. MO injected embryos were immediately dechorionated and transferred to a 96 well plate and exposed to dimethyl sulfoxide (DMSO) treated or ligand treated medium.
Compound Exposure. Islet-1:GFP embryos were collected by natural mating and immediately (at 1 cell stage) dechorionated and transferred to a 96 well plate. Each of the compounds tested were obtained as 10 mM stock and diluted in embryo medium to a final concentration of 10 μM, and 200 μL was added to each well. DMSO or propan-2-ol treated embryo medium was taken as control. Ligand solutions were replaced every 12 h with fresh ligand solution prepared in PTU treated embryo medium. Embryos were collected at 48 hpf, fixed for 4 h at room temperature with 4% paraformaldehyde and then washed and kept in PBST. Immunocytochemistry was performed using an anti-GFP antibody and fluorescence was viewed and photographed using a Zeiss Axioplan compound microscope and a Zeiss Axiocam digital camera.

| Structure (SMILES) | Lxrα activation, luciferase activity (Lxrα) | Lxrβ activation, luciferase activity (Lxrβ) | also measured |
| --- | --- | --- | --- |
| CC(C)CCC[C@@H](C)[C@H]1CC[C@H]2[C@@H]3CC[C@H]4CC(=O)CC[C@]4(C)[C@H]3CC[C@]12C [5α-cholestan-3-one] | None of these compounds showed significant activity |  |  |
| CC(C)CCC[C@@H](C)[C@H]1CC[C@H]2[C@@H]3[C@H](O)CC4=CC(=O)CC[C@]4(C)[C@H]3C[C@H](O)[C@]12C [7α,12α-diHCO, 7α,12α-Dihydroxycholest-4-en-3-one] | None of these compounds showed significant activity |  |  |
| CC(C)CCC[C@@H](C)[C@H]1CC[C@H]2[C@@H]3CC[C@H]4C[C@@H](O)CC[C@]4(C)[C@H]3CC[C@]12C [5α-cholestan-3β-ol] | None of these compounds showed significant activity |  |  |
| CC(C)CCC[C@@H](C)[C@H]1CC[C@H]2[C@@H]3C=CC4=CC(=O)CC[C@]4(C)[C@H]3CC[C@]12C [cholesta-4,6-dien-3-one] | None of these compounds showed significant activity |  |  |
| CC(CO)CCC[C@@H](C)[C@H]1CC[C@H]2[C@@H]3[C@H](O)C=C4C[C@@H](O)CC[C@]4(C)[C@H]3CC[C@]12C (stereo partly drawn) [7α,26-diHC, cholest-5-ene-3β,7α,26-triol] | none of which was found to show significant activity | none of which was found to show significant activity |  |
| CC(C)CCC[C@@H](C)[C@H]1CC[C@H]2[C@@H]3[C@H](O)CC4=CC(=O)CC[C@]4(C)[C@H]3CC[C@]12C [7α-HCO, 7α-Hydroxycholest-4-en-3-one] | None of these compounds showed significant activity |  |  |
| CC(C)CCC[C@@H](C)[C@H]1CC[C@H]2[C@@H]3[C@@H](O)C=C4C[C@@H](O)CC[C@]4(C)[C@H]3CC[C@]12C [7β-HC, Cholest-5-ene-3β,7β-diol] | None of these compounds showed significant activity |  |  |
| CC(C)[C@@H](O)CC[C@@H](C)[C@H]1CC[C@H]2[C@@H]3CC=C4C[C@@H](O)CC[C@]4(C)[C@H]3CC[C@]12C [24S-HC, Cholest-5-ene-3β,24S-diol] | activate Lxr | activate Lxr |  |
| CC(C)CCC[C@@H](C)[C@H]1CC[C@H]2[C@@H]3CCC4=CC(=O)CC[C@]4(C)[C@H]3CC[C@]12C [cholest-4-en-3-one] | None of these compounds showed significant activity |  |  |
| CC(CCC[C@@H](C)[C@H]1CC[C@H]2[C@@H]3[C@@H](O)CC4=CC(=O)CC[C@]4(C)[C@H]3CC[C@]12C)C(=O)O (stereo partly drawn) [7βH,3O-CA, 7β-hydroxy-3-oxocholest-4-en-26-oic acid] | none of which was found to show significant activity | none of which was found to show significant activity |  |
| CC(CO)CCC[C@@H](C)[C@H]1CC[C@H]2[C@@H]3[C@H](O)CC4=CC(=O)CC[C@]4(C)[C@H]3CC[C@]12C (stereo partly drawn) [7α,26-diHCO, 7α,26-dihydroxycholest-4-en-3-one] | none of which was found to show significant activity | none of which was found to show significant activity |  |
| CC(C)CC[C@@H](O)[C@@H](C)[C@H]1CC[C@H]2[C@@H]3CC=C4C[C@@H](O)CC[C@]4(C)[C@H]3CC[C@]12C [22R-HC, 22R-hydroxycholesterol, reference compound] |  |  | Lxr luciferase activity with the Lxr antagonist GGPP (Lxrα; metabolite 10 μM + GGPP 10 μM): similarly blocked; Number of Islet1+ cells [1]: does not show an effect towards Islet1+ cells |
| C[C@@H](CO)CCC[C@@H](C)[C@H]1CC[C@H]2[C@@H]3CC=C4C[C@@H](O)CC[C@]4(C)[C@H]3CC[C@]12C [26-HC, cholest-(25R)-5-ene-3β,26-diol] | no a significant effect | no a significant effect | Number of Islet1+ cells [1]: no effect on the number of Islet1+ cells |
| CC(CCC[C@@H](C)[C@H]1CC[C@H]2[C@@H]3C(=O)C=C4C[C@@H](O)CC[C@]4(C)[C@H]3CC[C@]12C)C(=O)O (stereo partly drawn) [3βH, 7O-CA, 3β-hydroxy-7-oxocholest-5-en-26-oic acid] | have the ability to activate both Lxrs | have the ability to activate both Lxrs | Islet-1 mRNA and protein level (qPCR, western blot) [2]: increase in the level of Islet-1 mRNA and protein; abca1 mRNA expression in vivo [2]: enhanced expression of abca1; Islet-GFP expression in cranial nerves ([2]; 48 hpf): increased Islet-GFP expression; Number of Islet1+ cells in cranial nerves (III, IV, V, VII, X) ([2]; 48 hpf): no significant effect on the number of Islet1+ cells; Islet-GFP levels after lxr morpholino (MO) injection ([2]; lxr MO vs control scrambled MO): abolished the in vivo increase in Islet-GFP levels; Number of other midbrain neurons (TH+ dopamine, GABAergic, red nucleus) [1]: did not affect the number of other midbrain neurons; Number of Islet1+ cells [1]: increased the number of Islet1+ oculomotor cells in the cultures; Effect on Islet1+ cells with Lxr antagonist GGPP ([1]; wt cultures, GGPP 10 μM): blocked by the Lxr antagonist GGPP; Number of active caspase-3+ cells ([1]; wt cultures, 10 μM 3β,7α-diHCA, 3βH,7O-CA, 25-HC, low concentrations of 3β,7β-diHCA, 3β-HCA): did not affect the number of active caspase-3+ cells |
| CC(CCC[C@@H](C)[C@H]1CC[C@H]2[C@@H]3[C@H](O)CC4=CC(=O)CC[C@]4(C)[C@H]3CC[C@]12C)C(=O)O (stereo partly drawn) [7αH,3O-CA, 7α-hydroxy-3-oxocholest-4-en-26-oic acid] | none of which was found to show significant activity | none of which was found to show significant activity | abca1 mRNA expression in vivo [2]: not; Islet-GFP expression in cranial nerves ([2]; 48 hpf): failed to regulate Islet-GFP expression |
| CC(C)CCC[C@@H](C)[C@H]1CC[C@H]2[C@@H]3[C@H](O)C=C4C[C@@H](O)CC[C@]4(C)[C@H]3CC[C@]12C [7α-HC, Cholest-5-ene-3β,7α-diol] | None of these compounds showed significant activity |  |  |

From patent US20230416299A1, “COMPOUND AND METHOD FOR THE TREATMENT AND DIAGNOSIS OF NEURODEGENERATIVE CONDITIONS” (Swansea University, priority 2013, published 2023)
